Experimental data taken from patent EP3928779A1 (Chugai Seiyaku Kabushiki Kaisha, priority 2014, dated 2016).

Tested on: rat small-intestinal brush border membrane vesicles
Test: Inhibitory effect on 33PO4 uptake into rat small-intestinal brush border membrane vesicles (rapid filtration method)
Assay type: biochemical
Settings: 33PO4 uptake into rat small-intestinal BBMVs; test compound 1 µM; reacted for 60 seconds
Summary of the method: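 Uptake of ^33PO4 was measured by rapid filtration and liquid scintillation counting of filter-retained vesicles, after quenching with ice-cold 110 mM NaCl/1 mM KH2PO4/10 mM HEPES pH 7.5. Vesicles were brush border membranes from the upper small intestine of female Wistar rats aged 4–5 weeks.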

Row | Compound | Rate of uptake inhibition (%) (1 µM)
1 | C#Cc1ccc(CN2C(=O)C(C(=O)Nc3ccc(C(F)(F)F)cc3-c3cc(C(F)(F)F)ncn3)=C(O)[C@@]3(C)CCCN23)c(F)c1F [Example 126] | 71%
2 | C[C@]12CCCN1N(Cc1c(F)cc(C#CCN3CCOCC3)cc1F)C(=O)C(C(=O)Nc1ccc(C(F)(F)F)cc1-c1ccc(C(F)(F)F)nc1)=C2O [Example 132] | 71%
3 | CN(CCO)CCOc1ccc(CN2C(=O)C(C(=O)Nc3ccc(C(F)(F)F)cc3-c3cc(C(F)(F)F)ncn3)=C(O)C3(CCC3)N2C)c(F)c1F [Example 347] | 28%
4 | COc1cccc(-c2cc(C(F)(F)F)ccc2NC(=O)C2=C(O)[C@@]3(C)CCCN3N(Cc3ccc(C#CCOCCCO)c(F)c3F)C2=O)c1OC [Example 127] | 95%
5 | CN1N(Cc2ccc(OCCN3CCOCC3)c(F)c2F)C(=O)C(C(=O)Nc2ccc(C(F)(F)F)cc2-c2ccc(C(F)(F)F)nc2)=C(O)C12CCCC2 [Example 287] | 47%
6 | CN1[C@@H](C(C)(C)C)C(O)=C(C(=O)Nc2cccc(C(F)(F)F)n2)C(=O)N1Cc1cccc(F)c1F [Example 244] | 71%
7 | Cc1c(-c2cc(C(F)(F)F)ccc2NC(=O)C2=C(O)C3(CCCCC3)N(C)N(Cc3ccc(OCCN4CCOCC4)c(F)c3F)C2=O)ncnc1C(F)(F)F [Example 296] | 17%
8 | CC(C)[C@H]1C(O)=C(C(=O)Nc2cc(F)c(Br)c(F)c2)C(=O)N(Cc2cccc(F)c2F)N1C [Example 254] | 58%
9 | Cc1cc(-c2cc(C(F)(F)F)ccc2NC(=O)C2=C(O)[C@@]3(C)CCCN3N(Cc3cccc(F)c3F)C2=O)cnc1C#N [Example 101] | 57%
10 | CSc1ccc(-c2cc(C(F)(F)F)ccc2NC(=O)C2=C(O)[C@@]3(C)CCCN3N(Cc3ccc(OCCN4CCOCC4)c(F)c3F)C2=O)cn1 [Example 103] | 78%
11 | CN1N(Cc2cccc(F)c2F)C(=O)C(C(=O)Nc2cc(F)c(Br)c(F)c2)=C(O)C12CCC2 [Example 257] | 71%
12 | Cc1cccc(CN2C(=O)C(C(=O)Nc3cc(F)c(Br)c(F)c3)=C(O)[C@@]3(C)CCCN23)c1F [Example 195] | 76%
13 | CN(C[C@H](O)[C@@H](O)[C@H](O)[C@H](O)CO)C(=O)COCCOCCOCCOCCOc1ccc(CN2C(=O)C(C(=O)Nc3ccc(C(F)(F)F)cc3-c3cc(C(F)(F)F)ncn3)=C(O)C3(CCCC3)N2C)c(F)c1F [Example 441, 7-[[2,3-Difluoro-4-[2-[2-[2-[2-[2-[methyl-[(2S,3R,4R,5R)-2,3,4,5,6-pentahydroxyhexyl]amino]-2-oxoethoxy]ethoxy]ethoxy]ethoxy]ethoxy]phenyl]methyl]-10-hydroxy-6-methyl-8-oxo-N-[4-(trifluoromethyl)-2-[6-(trifluoromethyl)pyrimidin-4-yl]phenyl]-6,7-diazaspiro[4.5]dec-9-ene-9-carboxamide] | 22%
14 | C[C@]12CCCN1N(Cc1cccc(OC(F)(F)F)c1)C(=O)C(C(=O)Nc1ccc(C(F)(F)F)cc1-c1cc(C(F)(F)F)ncn1)=C2O [Example 189] | 73%
15 | C[C@]12CCCN1N(Cc1cccc(Cl)c1)C(=O)C(C(=O)Nc1cc(F)c(Br)c(F)c1)=C2O [Example 221] | 82%
16 | COc1cccc(-c2cc(C(F)(F)F)ccc2NC(=O)C2=C(O)[C@@]3(C)CCCN3N(Cc3ccc(OC4CCOCC4)c(F)c3F)C2=O)c1OC [Example 158] | 84%

Row | Compound | Rate of uptake inhibition (%) (1 µM)
17 | CCN1[C@@H](C(C)(C)C)C(O)=C(C(=O)Nc2cc(F)c(Br)c(F)c2)C(=O)N1Cc1cccc(F)c1F [Example 246] | 52%
18 | CN1N(Cc2ccc(OCCN3CCOCC3)c(F)c2F)C(=O)C(C(=O)Nc2ccc(C(F)(F)F)cc2-c2cc(C(F)(F)F)ncn2)=C(O)C1(C)C [Example 313, 2-[[2,3-Difluoro-4-(2-morpholin-4-ylethoxy)phenyl]methyl]-5-hydroxy-1,6,6-trimethyl-3-oxo-N-[4-(trifluoromethyl)-2-[6-(trifluoromethyl)pyrimidin-4-yl]phenyl]pyridazine-4-carboxamide] | 65%
19 | CN1N(Cc2cccc(F)c2F)C(=O)C(C(=O)Nc2ccc(C(F)(F)F)nc2-c2cncc(C(F)(F)F)c2)=C(O)C1(C)C [Example 306] | 58%
20 | CN1N(Cc2ccc(OCCCOC[C@H](O)CO)c(F)c2F)C(=O)C(C(=O)Nc2ccc(C(F)(F)F)cc2-c2ccc(C(F)(F)F)nc2)=C(O)C12CCC2 [Example 383] | 26%
21 | C[C@]12CCCN1N(Cc1ccc(F)c(Br)c1)C(=O)C(C(=O)Nc1ccc(C(F)(F)F)cc1-c1cc(C(F)(F)F)ncn1)=C2O [Example 184] | 79%
22 | CN1N(Cc2ccc(OCCN3[C@@H]4COC[C@H]3C4)c(F)c2F)C(=O)C(C(=O)Nc2ccc(C(F)(F)F)cc2-c2cc(C(F)(F)F)ncn2)=C(O)C12CCCC2 [Example 380] | 43%
23 | C[C@]12CCCN1N(Cc1ccc(OCCCCCO)c(F)c1F)C(=O)C(C(=O)Nc1ccc(C(F)(F)F)cc1-c1cc(C(F)(F)F)ncn1)=C2O [Example 162] | 73%
24 | COc1ncc(-c2cc(C(F)(F)F)ccc2NC(=O)C2=C(O)[C@@]3(C)CCCN3N(Cc3cccc(F)c3F)C2=O)c(OC)n1 [Example 72] | 92%
25 | CN1N(Cc2ccc(OC3COC3)c(F)c2F)C(=O)C(C(=O)Nc2ccc(C(F)(F)F)cc2-c2cc(C(F)(F)F)ncn2)=C(O)C12CCC2 [Example 403, 6-(2,3-Difluoro-4-(oxetan-3-yloxy)benzyl)-9-hydroxy-5-methyl-7-oxo-N-(4-(trifluoromethyl)-2-(6-(trifluoromethyl)pyrimidin-4-yl)phenyl)-5,6-diazaspiro[3.5]non-8-ene-8-carboxamide] | 71%
26 | C[C@@]12CCCN1N(Cc1ccc(OCCN3CCOCC3)c(F)c1F)C(=O)C(C(=O)Nc1ccc(C(F)(F)F)cc1-c1cc(C(F)(F)F)ncn1)=C2O.Cl [Example 108] | 54%
27 | C[C@]12CCCN1N(Cc1c(F)cccc1F)C(=O)C(C(=O)Nc1ccc(C(F)(F)F)cc1-c1ccc(C(F)(F)F)nc1)=C2O [Example 203] | 91%
28 | CN(C)C(=O)N1CCN(CCOc2ccc(CN3C(=O)C(C(=O)Nc4ccc(C(F)(F)F)cc4-c4cc(C(F)(F)F)ncn4)=C(O)C4(CCC4)N3C)c(F)c2F)CC1 [Example 364] | 36%
29 | CN1N(Cc2ccc(OCCOCCOCCOCCC(=O)NCC(O)CO)c(F)c2F)C(=O)C(C(=O)Nc2ccc(C(F)(F)F)cc2-c2cc(C(F)(F)F)ncn2)=C(O)C12CCCC2 (stereo not shown) [Example 424] | 17%
30 | COC1(C)CN(CCOc2ccc(CN3C(=O)C(C(=O)Nc4ccc(C(F)(F)F)cc4-c4cc(C(F)(F)F)ncn4)=C(O)C4(CCC4)N3C)c(F)c2F)C1 [Example 356] | 58%
31 | 1-[(2,3-Difluorophenyl)methyl]-4a-ethyl-4-hydroxy-N-[5-methyl-2-(trifluoromethyl)furan-3-yl]-2-oxo-5,6,7,8-tetrahydropyrido[1,2-b]pyridazine-3-carboxamide [Example 19] | 41%
